Active and inactive are the calls of the source. The calls are words filed in the database; no cut-off is given here.

Test [1] relates to HeLa. Nature of the test: Growth inhibition of human HeLa cells at 33 uM. It counts as functional. The following applies: read-out: GI.
The subject of test [2] is HeLa. Nature of the test: Cytotoxic activity against human HeLa cells. It is filed as functional, cell-based.
In test [3] the test system is HeLa. Kind of test: Cytotoxic activity against human HeLa cells at 1.25 to 10 uM by cytological profiling assay. It counts as functional, cell-based.
Test [4] deals with HeLa. Kind of test: Cytotoxic activity against human HeLa cells at 0.295 uM by cytological profiling assay. It is filed as functional, cell-based.
The test system of test [5] is HeLa. Nature of the test: Cytotoxic activity against human HeLa cells at 1.47 uM by cytological profiling assay. It is filed as functional, cell-based.
For test [6], the system named is HeLa. Kind of test: Cytotoxic activity against human HeLa cells at 1.91 uM by cytological profiling assay. It counts as functional, cell-based.
For test [7], the system named is HeLa. Nature of the test: Cytotoxic activity against human HeLa cells at 0.382 uM by cytological profiling assay. It is filed as functional, cell-based.

On to `C=CC(C)(CO)c1c(O)cc2c(c1O)C(=O)C1=C(C2=O)[C@@H]2C[C@@H](C)[C@@H](OC(=O)C(C)C)C[C@@H]2C(C)(C)O1` (some centres undefined), for which the inhibition of growth at 33 µM in test [1] is 19%.

In the case of `CO[C@@H](C)[C@H]1C[C@H](C)[C@H]([C@@H](C)/C=C/[C@@H]2CC[C@@H](C)[C@H](/C(=C/[C@H]3CCC[C@@H](C)[C@@H]3[C@H](C)C(=O)C3=C(O)COC3=O)CO)O2)O1` [TETRONASIN 5930], in test [2], the IC50 (usually the concentration at which inhibition is half-maximal) was found to be 230 nM. Further, the outcome in test [3] was Active. `CC(C)C(=O)O[C@H]1C[C@H]2[C@@H](C[C@H]1C)C1=C(OC2(C)C)C(=O)c2c(cc(O)c3c2O[C@@H]2[C@@H](O)OC[C@]32C)C1=O`: in test [1], the inhibition of growth at 33 µM was 32%. Take `C[C@H](CCC(=O)O)C[C@H](C)C[C@H](C)C(=O)/C=C(\O)[C@H](C)C[C@H](C)C/C=C/[C@@H](C)[C@@H](O)[C@@H](C)[C@@H](O)C[C@@H]1CC[C@@](C)([C@H]2CC[C@@](C)([C@@H](C)O)O2)O1`: the outcome in test [4] and in test [5] was Active. As for `CNc1ccc2oc(C[C@H]3O[C@@]4(CC[C@H]3C)O[C@H]([C@H](C)C(=O)c3ccc[nH]3)[C@H](C)C[C@H]4C)nc2c1C(=O)O`, the outcome in test [6] and in test [7] was Active. With `CCC(C)C(=O)O[C@H]1C[C@H]2[C@@H](C[C@H]1C)C1=C(OC2(C)C)C(=O)c2c(cc(O)c3c2O[C@@H]2[C@@H](O)OC[C@]32C)C1=O` (some centres undefined), the inhibition of growth at 33 µM in test [1] was found to be 25%.

Source of the values: ChEMBL document CHEMBL4033609, “Naphthablins B and C, Meroterpenoids Identified from the Marine Sediment-Derived Streptomyces sp. CP26-58 Using HeLa Cell-Based Cytological Profiling” (J Nat Prod, 2017).
